Values joined by “and” are separate entries in the source; they are usually repeats but may differ in a detail not shown here. Equal values may be shown once. Read-outs that look alike come from different tables or passages of the source.
What was measured:
[1] = Hygroscopicity test of the crystal form; format: physicochemical; conditions: 25° C., 24 hours
Experimental: Three dry glass weighing bottles (with an outer diameter of 50 mm and a height of 30 mm) with a stopper was placed in a desiccator with saturated ammonium chloride solution at the lower part, the glass weighing bottles were left open, the desiccator was covered with lid, and then the desiccator was placed in a 25° C. incubator and left overnight.
The weighing bottle was weighed precisely after placed overnight, the weight was respectively m1 1, m1 2, m1 3
An appropriate amount of the crystal form of the compound of formula (I) was laid flat in the weighing bottles which was already weighed (with the sample thickness of about 1 mm), and was weighed precisely, the weight was respectively m2 1, m2 2, m2 3.
The weighing bottle was left open and was placed together with the stopper in a desiccator with saturated ammonium chloride solution at the lower part, the weighing bottle was left open, the desiccator was covered with lid, and then the desiccator was placed in a 25° C. incubator for 24 hours.
The weighing bottle was covered with its stopper after placed for 24 hours, and then it was weighed precisely, the weight was respectively m3 1, m3 2, m3 3.
The hygroscopic weight gain was calculated, the calculation formula is as follows: Weight gain percentage=100%×(m3−m2)/(m2−m1)

AKT2 = target: T1, AKT2 (Homo sapiens, UniProt P31751); assay: AKT enzyme activity test (LANCE TR-FRET), AKT2; format: biochemical
T1 construct: purchased life technology
T1 sequence (P31751 whole entry): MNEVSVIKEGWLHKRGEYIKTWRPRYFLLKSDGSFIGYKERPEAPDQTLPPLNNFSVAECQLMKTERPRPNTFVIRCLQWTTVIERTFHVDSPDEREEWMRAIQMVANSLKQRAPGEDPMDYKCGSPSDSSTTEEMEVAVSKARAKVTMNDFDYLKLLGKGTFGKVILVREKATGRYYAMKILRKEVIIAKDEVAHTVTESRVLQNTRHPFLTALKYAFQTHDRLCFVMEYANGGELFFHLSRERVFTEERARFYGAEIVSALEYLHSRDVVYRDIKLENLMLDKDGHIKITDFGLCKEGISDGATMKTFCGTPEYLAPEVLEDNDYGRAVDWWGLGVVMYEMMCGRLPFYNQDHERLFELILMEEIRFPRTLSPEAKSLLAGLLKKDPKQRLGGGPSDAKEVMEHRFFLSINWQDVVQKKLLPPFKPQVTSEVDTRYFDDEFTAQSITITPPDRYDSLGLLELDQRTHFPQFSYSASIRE
Excerpt: (§1) AKT, also known as protein kinase B (PKB), is a serine/threonine specific protein kinase, mainly including AKT1, AKT2 and AKT3. The AKT signaling pathway plays an important role in various cellular processes such as glucose metabolism, apoptosis, cell proliferation transcription and cell migration. This study intends to analyze the inhibitory effect of the crystal form of the compound of formula (I) on the kinase activity of AKT family members.
(§2) In this experiment, the homogeneous time-resolved fluorescence […] energy transfer (LANCE TR-FRET®) method was used. The enzymes, biotinylated polypeptide substrates and the compound to be tested were mixed in the detection plate, and ATP was added to initiate the reaction and the mixture was incubated. After the reaction, EDTA was added to terminate the reaction, and Eu-labeled antibody was added at the same time to carry out the reaction and the reaction was detected. The detection plate was analyzed using Envision from PE Company, and the analysis mode was TR-FRET, the data were expressed by fluorescence signals at 665 nm and 615 nm, respectively.
(§3) Compound preparation: the test compound and the reference compound were diluted with 100% DMSO, the initial concentrations of the compounds were 10 μM, and the compounds were 3-fold gradient diluted into 10 concentrations. […]

AKT1 = target: T2, AKT1 (Homo sapiens, UniProt P31749); assay: AKT enzyme activity test (LANCE TR-FRET), AKT1; format: biochemical
T2 construct: purchased life technology
T2 sequence (P31749 whole entry): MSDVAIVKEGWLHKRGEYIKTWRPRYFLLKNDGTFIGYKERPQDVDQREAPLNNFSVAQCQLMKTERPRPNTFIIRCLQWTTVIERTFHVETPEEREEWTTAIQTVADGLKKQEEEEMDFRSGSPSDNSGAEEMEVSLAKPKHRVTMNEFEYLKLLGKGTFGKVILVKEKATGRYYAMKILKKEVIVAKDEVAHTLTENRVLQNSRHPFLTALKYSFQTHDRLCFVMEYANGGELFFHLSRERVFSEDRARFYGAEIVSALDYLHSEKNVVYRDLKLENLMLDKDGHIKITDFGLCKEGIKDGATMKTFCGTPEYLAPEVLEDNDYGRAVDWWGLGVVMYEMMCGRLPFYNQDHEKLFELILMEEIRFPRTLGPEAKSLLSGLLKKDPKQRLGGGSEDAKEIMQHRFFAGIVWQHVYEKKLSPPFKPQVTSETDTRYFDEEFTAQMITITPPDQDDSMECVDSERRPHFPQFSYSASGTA
Excerpt: as §1, §2, §3

AKT3 = target: T3, AKT3 (Homo sapiens, UniProt Q9Y243); assay: AKT enzyme activity test (LANCE TR-FRET), AKT3; format: biochemical
T3 construct: purchased life technology
T3 sequence (Q9Y243 whole entry): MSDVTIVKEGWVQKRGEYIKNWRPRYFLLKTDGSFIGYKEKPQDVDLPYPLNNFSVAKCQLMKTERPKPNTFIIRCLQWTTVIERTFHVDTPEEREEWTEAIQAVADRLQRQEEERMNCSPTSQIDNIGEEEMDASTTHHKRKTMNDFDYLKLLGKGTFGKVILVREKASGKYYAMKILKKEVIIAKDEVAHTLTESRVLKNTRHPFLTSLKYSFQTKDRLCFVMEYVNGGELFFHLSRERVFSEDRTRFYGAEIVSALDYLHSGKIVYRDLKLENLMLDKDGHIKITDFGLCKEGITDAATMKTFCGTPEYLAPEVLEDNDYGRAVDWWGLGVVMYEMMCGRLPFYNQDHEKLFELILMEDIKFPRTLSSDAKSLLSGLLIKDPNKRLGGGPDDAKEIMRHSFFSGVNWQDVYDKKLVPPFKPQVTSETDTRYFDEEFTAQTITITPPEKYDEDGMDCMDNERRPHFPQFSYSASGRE
Excerpt: as §1, §2, §3

[2] = system: prostate cancer cell LNCaP overexpressing AKT; assay: Cytoactive test, cell proliferation (CellTiter-Glo); format: cell-based
Excerpt: This experiment intends to study the inhibitory effect of the compound of formula (I) on the prostate cancer cell LNCaP overexpressing AKT.
The content of ATP directly reflects the number and state of cells, and the number of living cells can be detected by quantitatively measuring ATP. The live cell detection kit contains luciferase and its substrate, with the participation of ATP, luciferase can catalyze the substrate and emit a stable optical signal, the amount of ATP in the cell can be determined by detecting the strength of the signal. Wherein the light signal is proportional to the amount of ATP in the cell, and ATP is positively correlated to the number of living cells, so that the proliferation of the cell can be detected. The detection plate was analyzed by using Envision from PE Company.
LNCaP cells were seeded in a 384-well plate, each well contained 1000 cells.
The cell plate was placed in a carbon dioxide incubator overnight.
The compound was 3-fold diluted with Bravo into 10 compound concentrations, and a double duplicate well experiment was set up.
The compound was transferred to the cell plate at an initial concentration of 10 μM. […]
Promega CellTiter-Glo reagent was added to the cell plate, and incubated at room temperature for 10 minutes to stabilize the luminescence signal, which was read by PerkinElmer Envision multi-label analyzer.

[3] = Solubility test of the crystal form in different solvents; format: physicochemical; conditions: 25±2° C.; for solubility at 30 min: 25 °C, thermodynamic from solid, read-out: Solubility classification
Experimental: 10 mg of the crystal form of the compound of formula (I) was weighed accurately and placed in a glass bottle, 1 mL solvent was added thereto, the solution was shaken vigorously for 30 seconds every 5 minutes under 25±2° C., the dissolution phenomenon within 30 minutes was observed. The corresponding data was recorded. 1 mg of the insoluble sample in step 2.1 was weighed accurately and placed in a glass bottle, a suitable solvent was added thereto, the solution was shaken vigorously for 30 seconds every 5 minutes under 25±2° C., the dissolution phenomenon within 30 minutes was observed. The corresponding data was recorded. [table]

[4] = Stability test of the crystal form (accelerated conditions, HPLC related substances); format: physicochemical
Experimental: […] The sample was analyzed after 10 days, 1 month and 2 months.
1.2 Preparation of Diluent and Mobile Phase
Diluent: acetonitrile:water (1:1) was used as diluent
For example: 100 mL of pure water and 100 mL of pure acetonitrile were mixed in a glass bottle, followed by degassing with ultrasound for 10 minutes, then cooled down to room temperature.
Mobile phase A: 0.1% phosphoric acid aqueous solution
For example: 2.0 mL phosphoric acid was added into 2000 mL water, followed by ultrasound treatment for 10 minutes, the solution was mixed well and cooled down to room temperature as mobile phase A.
Mobile phase B: acetonitrile
Acetonitrile was used as mobile phase B.
1.3 Preparation of the Reference Solution (0.25 mg/mL Calculated by the Free Base)
The sample of the 0th day was used as reference sample, 16 mL of diluent was added thereto, followed by ultrasound treatment for 5 minutes, and the solution was mixed well. Then the solution was further subjected to 1-fold dilution and marked as STD-1 and STD-2, respectively.
1.4 Preparation of Sample Solution for Testing Sensitivity
Reference solution STD-1 (the sample of the 0th day) was subjected to 2000-fold dilution, noted as LOQ.
1.5 Preparation of the Sample Solution (0.25 mg/mL Calculated by the Freebase)
The sample was taken out and restored to room temperature and 16 mL diluent was added for dissolution. The solution was further subjected to 1-fold dilution to be used as sample solution to detect the content of related substances.

Hygroscopicity scale [1]: no or almost no hygroscopicity
Weight gain percentage, Average ([1]; average of 3 samples, saturated ammonium chloride): 0.07%
Weight gain percentage ([1]; single samples 1-3, saturated ammonium chloride): 0.05% and 0.12% and 0.04%
inhibition effect against the activity of AKT2 kinase (AKT2): strong inhibition effect
IC50 (AKT2; Akt2 2 nM, ATP 360 μM, read-out: IC50 of inhibition on kinase activity, AKT2): 50.3 nM
inhibition effect against the activity of AKT1 kinase (AKT1): strong inhibition effect
IC50 (AKT1; Akt1 1.25 nM, ATP 36 μM, read-out: IC50 of inhibition on kinase activity, AKT1): 1.3 nM
inhibition effect against the activity of AKT3 kinase (AKT3): strong inhibition effect
IC50 (AKT3; Akt3 2 nM, ATP 160 μM, read-out: IC50 of inhibition on kinase activity, AKT3): 90.4 nM
IC50 ([2]; Homo sapiens, 72 h, 3 days, read-out: IC50 of inhibition on cell proliferation): 67 nM
Solubility classification ([3]; 0.1N HCl): barely soluble or insoluble
Solubility classification ([3]; 0.1N NaOH): barely soluble or insoluble
solubility at 30 min ([3]; aqueous buffer, 0.1N NaOH): < 0.1 mg/mL
solubility at 30 min ([3]; organic solvent or mixture, Acetonitrile): < 0.1 mg/mL
solubility at 30 min ([3]; organic solvent or mixture, Dimethyl sulfoxide): 100 to 1000 mg/mL
solubility at 30 min ([3]; organic solvent or mixture, Methanol): 1 to 10 mg/mL
solubility at 30 min ([3]; organic solvent or mixture, N-Methylpyrrolidone): 100 to 1000 mg/mL
solubility at 30 min ([3]; simulated gastric fluid, 0.1N HCl): 0.1 to 1 mg/mL
solubility at 30 min ([3]; Water): < 0.1 mg/mL
Solubility classification ([3]; Acetonitrile): barely soluble or insoluble
Solubility classification ([3]; Dimethyl sulfoxide): quite soluble
Solubility classification ([3]; Methanol): slightly soluble
Solubility classification ([3]; N-Methylpyrrolidone): quite soluble
Solubility classification ([3]; Water): barely soluble or insoluble
Impurity content, RRT 0.95 ([4]; 40° C./75%RH, 1M): 0.05%
Impurity content, RRT 0.98 ([4]; 40° C./75%RH, 1M): 0.10%
Impurity content, RRT 0.99 ([4]; 40° C./75%RH, 1M): 1.36%
Impurity content, RRT 1.02 ([4]; 40° C./75%RH, 1M): 0.22%
Impurity content, RRT 1.04 ([4]; 40° C./75%RH, 1M): 0.05%
Impurity content, RRT 1.06 ([4]; 40° C./75%RH, 1M): 0.05%
Impurity content, RRT 1.21 ([4]; 40° C./75%RH, 1M): 1.50%
Impurity content, RRT 1.26 ([4]; 40° C./75%RH, 1M): 0.07%
TRS (total impurity content) ([4]; 40° C./75%RH, 1M): 3.38%
Impurity content, RRT 0.95 ([4]; 40° C./75%RH, 2M): 0.04%
Impurity content, RRT 0.98 ([4]; 40° C./75%RH, 2M): 0.10%
Impurity content, RRT 0.99 ([4]; 40° C./75%RH, 2M): 1.31%
Impurity content, RRT 1.02 ([4]; 40° C./75%RH, 2M): 0.20%
Impurity content, RRT 1.04 ([4]; 40° C./75%RH, 2M): 0.04%
Impurity content, RRT 1.06 ([4]; 40° C./75%RH, 2M): 0.09%
Impurity content, RRT 1.21 ([4]; 40° C./75%RH, 2M): 1.44%
Impurity content, RRT 1.26 ([4]; 40° C./75%RH, 2M): 0.06%
Impurity content, RRT 1.43 ([4]; 40° C./75%RH, 2M): 0.09%
TRS (total impurity content) ([4]; 40° C./75%RH, 2M): 3.37%
Impurity content, RRT 0.98 ([4]; 40° C./75%RH, 10D): 0.10%
Impurity content, RRT 0.99 ([4]; 40° C./75%RH, 10D): 1.40%
Impurity content, RRT 1.02 ([4]; 40° C./75%RH, 10D): 0.24%
Impurity content, RRT 1.04 ([4]; 40° C./75%RH, 10D): 0.04%
Impurity content, RRT 1.21 ([4]; 40° C./75%RH, 10D): 1.50%
Impurity content, RRT 1.26 ([4]; 40° C./75%RH, 10D): 0.06%
TRS (total impurity content) ([4]; 40° C./75%RH, 10D): 3.35%
Impurity content, RRT 0.95 ([4]; 60° C./75%RH, 1M): 0.05%
Impurity content, RRT 0.98 ([4]; 60° C./75%RH, 1M): 0.10%
Structure (SMILES): Cc1cnn2c1-c1cc(C(=O)N[C@H](CN)Cc3cccc(F)c3)sc1CCC2.O=C(O)/C=C\C(=O)O
inhibitory effect on the growth of LNCaP cells [2]: significant inhibitory effect
